Measured values published in EP1785721A1, “Microbial, viral and mammalian susceptibility to agents that affect cell growth and metabolism, and mode of action of compounds” (Stratos Bio Ltd., priority 2005, dated 2007).
Where two headings read alike, the source gives them in different places.

How the values were obtained:
[1] = Animal case study, antibiotic treatment of a scratch to the eye; type: in vivo; conditions: 30 days of treatment, domestic cat with a scratch to the eye
Procedure: A domestic cat was given a mixture of antibiotics as eye drops in response to a scratch to the eye. […] Previously the cat had never been given milk (as many animals are allergic to cow's milk). The cat was now given full cream milk as part of a regimen to promote weight gain (the cat also continued to eat its usual amount of daily cat food throughout the period of weight loss). Initially weight was gained but within 24 hours weight loss resumed (presumably because the pathogenic bacteria/viruses had found a way of utilising lactose). An autopsy indicated bone-cancer as cause of death. The body wasting caused by the weight loss was very similar to that observed in early AIDS cases. However the cat had been regularly vaccinated against HTLV 1 through its 16 year life (and had never been ill in that period).

B. pumilus = test: MIC determination, two-fold serial dilutions assayed for turbidity; type: cell-based, Bacillus pumilus
Procedure: (§1) MIC and MBC's were determined as follows: • Two-fold serial dilutions of antibiotic in their respective media were incubated for 16-24h (depending on the bacterial strain) and assayed for turbidity. A tube with a turbid suspension was not inhibited and a clear suspension with the lowest concentration of antibiotic showing no growth was designated MIC. MBC's were checked as follows: 0.01ml of each suspension from tubes showing no growth were added to agar plates and incubated for 48H; the lowest concentration of antibiotic from which no colonies formed was designated MBC.

[2] = test system: Bordetella bronchiseptica; test: Flow microcalorimetry (p-t curves) of growing culture; type: cell-based
Source text: (§2) • a) For B. pumilus a simple glucose/salts medium was employed with a glucose concentration of 0.1 % w/v. • b) For Bord. bronch. The above salts medium was used with the addition of nicotinic acid, methionine and glutamic acid. Glutamic acid was used at a concentration of 0.2% w/v. • c) For M. flavus a semidefined medium was employed, using the same salts as a B. pumilus but also Na-citrate, biotin and protease peptone. In the calorimeter a concentration of 0.4% protease peptone was used. All medium constituents (except protease) were analytical reagents. The calorimetric medium was therefore a final concentration of 100ml of either solution a, b or c freshly autoclaved for 15 mins exactly at 121°C, 151b/sq inch. Glucose was added to the appropriate solution after autoclaving.
(§3) To the vertical face of the vessel close to its base, equidistantly spaced around the circumference, ports were fitted for an oxygen electrode and for sampling/inoculation. The fermenter was closed with a flat flanged glass lid which had five ports accommodating respectively, gas inlet tube, gas exhaust (via air condenser), inlet and outlet flow-lines to and from the calorimeter. The fermenter and lid was sealed with a p.t.f.e. gasket and clamped with a metal clip. The fermenter was placed on a magnetic stirring unit in a water jacket which allowed circulation of the thermostatically controlled water at 30°C or 37°C. The fermenter which contained a Teflon coated magnetic stirring bar, was sterilised by autoclaving.
(§4) For a typical calorimetric incubation the medium was passed through the calorimetric vessel at the same flow rate and temperature as those used in the experiment to establish a steady baseline deflection. The following operations then took place to a strict timetable. The liquid nitrogen stored ampoule was thawed at 38°C for 3 min and then stirred for 20 sec on a whirlimixer. The bacterial suspension (0.5-1.5ml) volumes was inoculated into the medium (100ml) two minutes after completion of thawing. A Gilson automatic pipette was used for inoculation. The calorimeter inlet flow-line was placed in the incubation medium 30 seconds after inoculation. The flowing incubation medium reached the calorimetric vessel two min after inlet flow-line insertion. At this time the recording of the p-t curves was started. Eight min after inoculation the outflow from the calorimeter was returned to the fermenter (after the "baseline" medium had run to waste but before the inoculated medium ran to waste) thus making a closed system. Aeration was started as soon as the inlet tube was inserted in the fermenter. Microbiological purity of the culture was checked by plating out a sample of the culture at the end of each incubation on nutrient agar (lab M).
(§5) The output of calorimetric experiments is a plot of power (energy evolution per unit of time) as a function of time. The unit of power (p) is the Watt (W) and the unit of time is the hour (h). In some experiments seconds (s) were used as time unit.
After successful freezing of Bord. bronch p-t curves for growth in different concentrations of glutamic acid from 0.1%-0.5% were obtained. It was concluded that a medium containing 0.2% glutamic acid would be sufficient for a good deflection in the microcalorimeter minimising the possibility of the bacteria clogging in the microcalorimetric cell or in the teflon tubes leading to and from the microcalorimetric cell. A pH of 7 was used in all the following experiments as this is the optimum pH for polymyxin - lipid binding.
It was of vital importance to maintain a constant oxygen tension; this was achieved by using saturation concentrations of oxygen. It was decided to use the height of the small peak as full scale deflection for the antibiotic assay as the increase in power was exponential up to this point and the peak occurred at a convenient time. This choice of assay point was empirical. The inoculum was 1.1 ± 0.06 x 10^8 cfu/ml for all the microclalorimetric incubations. […]

E.coli = test: MIC and MBC determination, two-fold serial dilutions assayed for turbidity; type: cell-based
Procedure: MIC and MBC's were determined as follows: • Two-fold serial dilutions of antibiotic in their respective media were incubated for 16-24h (depending on the bacterial strain) and assayed for turbidity.
A tube with a turbid suspension was not inhibited and a clear suspension with the lowest concentration of antibiotic showing no growth was designated MIC. MBC's were checked as follows: 0.01ml of each suspension from tubes showing no growth were added to agar plates and incubated for 48H; the lowest concentration of antibiotic from which no colonies formed was designated MBC.
To assay the nitrofurans at a concentration where the maximum sensitivity to E.coli could be achieved MIC's were determined for each compound. […] The respiratory medium was the one described previously at pH7. […] None of the nitrofurans were water soluble so prior to either MIC determination or incubation an accurately weighed sample of each compound was dissolved in 0.4ml DMSO and then 1.6ml H2O was added. When this solution was added to either tubes containing nutrient broth or to the fermentation vessels emulsions resulted. Good stirring minimised the problem in the calorimeter. No compensation was made for DMSO when diluting the samples as high concentrations of DMSO could falsify the results. […] Two types of responses were observed. […] No dependence of MIC on either RMM or power could be observed.

respiring E.coli = test: Flow microcalorimetry (p-t curves) of respiring cells in glucose buffer; type: cell-based
Procedure: The respiration experiments were carried out in glucose buffer at different pH.
The nitrofurans only differed in the length of their side chains (e.g. methyl, propyl etc.).
To assay the nitrofurans at a concentration where the maximum sensitivity to E.coli could be achieved MIC's were determined for each compound. […] The respiratory medium was the one described previously at pH7. […] No compensation was made for DMSO when diluting the samples as high concentrations of DMSO could falsify the results.

Micrococcus flavus [3] = test: MIC and MBC determination, two-fold serial dilutions assayed for turbidity; type: cell-based
Procedure: as §1

[4] = test system: Bordetella bronchiseptica; test: as above; type: cell-based
Procedure: as §1

Micrococcus flavus [5] = test: Flow microcalorimetry (p-t curves) of growing culture; type: cell-based; conditions: bacterial concentration printed '0?'
Source text: as §2
To the vertical face of the vessel close to its base, equidistantly spaced around the circumference, ports were fitted for an oxygen electrode and for sampling/inoculation. The fermenter was closed with a flat flanged glass lid which had five ports accommodating respectively, gas inlet tube, gas exhaust (via air condenser), inlet and outlet flow-lines to and from the calorimeter. The fermenter and lid was sealed with a p.t.f.e. gasket and clamped with a metal clip. […]

Bacillus pumilus = test: as above; type: cell-based
Source text: as §2, §3, §4, §5
P-t curves of B. pumilus at 30µV full scale deflection (471.15µW) show a logarithmic increase in power. […] After 10h growth the power output was: 17% for 0.05% glucose, 22% for 0.2% glucose and 18% for 0.1% glucose. It was decided to use 0.1% glucose for microcalorimetrically monitored growth experiments, because use of 0.2% glucose could result in the bacterium clumping in the calorimetric chamber or in the Teflon tubes leading to and from the calorimeter. In 0.05% glucose B. pumilus grew slightly slower and to a smaller percentage total deflection than in the 0.1 % glucose incubations. The p-t curve of 0.1 % glucose on 10µV (157.05µW full scale deflection) was obtained.

For `CN[C@H](CC(C)C)C(=O)N[C@H]1C(=O)N[C@@H](CC(N)=O)C(=O)N[C@H]2C(=O)N[C@H]3C(=O)N[C@H](C(=O)N[C@H](C(=O)O)c4cc(O)cc(O)c4-c4cc3ccc4O)[C@H](O)c3ccc(c(Cl)c3)Oc3cc2cc(c3O[C@@H]2O[C@H](CO)[C@@H](O)[C@H](O)[C@H]2O[C@H]2C[C@](C)(N)[C@H](O)[C@H](C)O2)Oc2ccc(cc2Cl)[C@H]1O` [vancomycin], which “effect of treatment on the eye” value [1] is on record?
Its value is “without any effect to the eye”.

What does the source list for `NC[C@@H]1O[C@H](O[C@H]2[C@@H](O)[C@H](O[C@@H]3[C@@H](O)[C@H](N)C[C@H](N)[C@H]3O[C@H]3O[C@H](CN)[C@@H](O)[C@H](O)[C@H]3N)O[C@@H]2CO)[C@H](N)[C@@H](O)[C@@H]1O.O=S(=O)(O)O` [Neomycin sulphate]?
effect at MIC (B. pumilus; 5.1 x 10^6 cfu/ml): bacteriostatic; MIC (B. pumilus; 5.1 x 10^6 cfu/ml, inoculum used in the microcalorimetric incubations): 2 µg/mL; MIC (B. pumilus; inoculum not given): MIC NEO 1 ug/ml; MIC (B. pumilus; inoculum of 1x10^5 cfu/ml): 0.1 µg/mL; effect at MIC (B. pumilus; inoculum of 1x10^5 cfu/ml): bacteriostatic; Observed effect on p-t curves ([2]; 0.25ug/ml added at 50 % of p-t curve): No effect on p-t curve; MBC (E.coli): NEO 5900 ug/ml; MIC (E.coli): 500 µg/mL; MIC (E.coli; listed as NEO): NEO 5900 ug/ml; range of linear dose-response (respiring E.coli; respiration): 10 to 100 µg/mL; Observed effect on p-t curves (respiring E.coli; respiration, 500 ug/ml): Increase in heat output; range of linear relationship between dose and the reciprocal of increase in response from the control curve (respiring E.coli; respiring E.coli): 20 to 100 µg/mL; heat output (respiring E.coli; respiring E.coli, all concentrations): increased heat output; effect on power (respiring E.coli; respiring E.coli, pH 8): caused an increase in power; MIC (Micrococcus flavus [3]): MIC NEO 4 ug/ml; MIC [4]: MIC NEO 0.25 ug/ml; Observed effect on p-t curves (Micrococcus flavus [5]; 4 ug/ml): No effect on p-t curve; power output (Bacillus pumilus; 0.5 and 1 x MIC (1-2 µg/ml) added after an increase of 10% of full scale deflection): the same effect was observed; power output (Bacillus pumilus; 0.5 x MIC (1µg/ml) added after a 25% increase power output, 2-4h after addition): massive power output; power output (Bacillus pumilus; added after an increase in power output of 15% of full scale deflection): only marginally larger than that observed for the normal growth curve; heat output (Bacillus pumilus; concentrations of < 1ug/ml or in combinations with other antibiotics, organism not named at this place): increased heat output; power output (Bacillus pumilus; higher concentrations of antibiotic (above 1 x MIC), added after 10% of full scale deflection): a decrease in power output was observed

For Polymyxin B sulphate, which MIC (B. pumilus; inoculum not given) is on record?
Its MIC is “POL 20 ug/ml”.

And the “Observed effect on p-t curves” value ([2]; 0.07 ug/ml added at 18 % of p-t curve)?
The value was “No effect on growth curve”.

What about the response ([2]; 0.033 x MIC (0.07 µg/ml)) of the same compound?
The response was “no response to the antibiotic was observed”.

And the Comments ([2]; 0.35 -2 ug/ml added at 18 % of p-t curve)?
The Comments was “All curves return to baseline confirmed bacteriocidal action”.

What about the “Observed effect on p-t curves” value ([2]; 0.35 -2 ug/ml added at 18 % of p-t curve, 10 min after addition) of the same compound?
Its value is “Linear log dose response 10 min after addition of antibiotic CV 2.5%”.

What about the p-t curve ([2]; 0.5 x MIC, within 10 min of addition) of the same compound?
Its p-t curve is “sharp decline in heat output”.

What about the mode of action ([2]; at MIC values) of the same compound?
The mode of action was “bactericidal”.

What about the “decline of the p-t curve” value ([2]; concentration larger than 3.5 x MIC) of the same compound?
The value was “the declines were identical”.

What about the “reversibility of the effect” value ([2]; most concentrations of antibiotic, decline in power decreased to a baseline value) of the same compound?
Its value is “irreversible”.

And the “time to observable response after addition of the antibiotic” value ([2]; usually)?
The value was ≤ 5 min.

What about the MBC (E.coli) of the same compound?
The MBC was 6.3 µg/mL.

And the MIC (E.coli)?
Its MIC is 6.3 µg/mL.

What about the MBC (E.coli; listed as POL) of the same compound?
The MBC was “POL 6.3ug/ml”.

What about the MIC (E.coli; listed as POL) of the same compound?
The MIC was “POL 6.3ug/ml”.

And the Comments (respiring E.coli; respiration, 6.3 ug/ml)?
Its Comments is “Bacteriocidal action demonstrated”.

What about the “Observed effect on p-t curves” value (respiring E.coli; respiration, 6.3 ug/ml) of the same compound?
Its value is “Reduced height of p-t curve initially and returned to baseline within I hour”.

What about the “sensitivity of the assay” value (respiring E.coli; respiring E.coli) of the same compound?
The value was 3 µg/mL.

And the “effect on p-t curve” value (respiring E.coli; respiring E.coli, pH 7)?
The value was “reduced the initial peak height and thereafter the p-t curve returned to baseline”.

What about the MIC (Micrococcus flavus [3]) of the same compound?
Its MIC is “POL 2ug/ml”.

And the MBC [4]?
Its MBC is “Ug/ml MIC & MBC 2 ug/ml”.

And the MIC [4]?
Its MIC is “Ug/ml MIC & MBC 2 ug/ml”.

What about the MIC ([4]; listed as POL) of the same compound?
Its MIC is “POL 2ug/ml”.

And the MBC ([4]; listed as polymyxin B sulphate)?
The MBC was 2 µg/mL.

What about the MIC ([4]; listed as polymyxin B sulphate) of the same compound?
The MIC was 2 µg/mL.

What about the “Observed effect on p-t curves” value (Micrococcus flavus [5]; 2ug/ml) of the same compound?
Its value is “Slightly delayed peak”.

And the “Observed effect on p-t curves” value (Bacillus pumilus; 20ug/ml, within 9 hours, bacterial concentration printed '0?')?
The value was “Within 9 hours growth was inhibited completely”.
